Source: patent US7723301B2, “Pharmaceutical compositions comprising an anti-teratogenic compound and applications of the same” (The Board of Trustees of the University of Arkansas, priority 2007, dated 2010)
“Also recorded” adds a separate entry of the source.

B1: Noggin: recombinant Noggin, an inhibitor of Bmp signaling (protein, UniProt P97466 28-232, looked up)
Noggin: QHYLHIRPAPSDNLPLVDLIEHPDPIFDPKEKDLNETLLRSLLGGHYDPGFMATSPPEDRPGGGGGPAGGAEDLAELDQLLRQRPSGAMPSEIKGLEFSEGLAQGKKQRLSKKLRRKLQMWLWSQTFCPVLYAWNDLGSRFWPRYVKVGSCFSKRSCSVPEGMVCKPSKSVHLTVLRWRCQRRGGQRCGWIPIQYPIISECKCSC

Assays:
[1] = system: Bmp4 and Dkk1 expression in PLBCs; experiment: sqRT-PCR of Bmp4 and Dkk1 expression in PLBCs; type: cell-based, chicken
Method: (§1) Primary limb bud cells (PLBCs) were isolated from 60 pooled wing and hindlimb buds of HH stages 23/24 embryos. Fibroblasts were gained from HH stage 34 chicken embryos or from 13.5 d.p.c. mouse embryos. Human embryonic fibroblasts were provided by Matthias Maass (2). Before adding reagents, all cell types were cultured for 16 hours in D-MEM (Gibco) plus 10% fetal calf serum (FCS) and 2% chicken serum. Treatment with thalidomide, phthalimide, recombinant human (rh) BMP4 (300 ng/ml; R&D Systems), juglone (5 μM; Sigma), recombinant mouse Noggin (30, 300, 1000 ng/ml in FIG. 4B; 300 ng/ml in FIGS. 4C and 6A), anti-human-DKK1 antibody (35, 350 and 1000 ng/ml in FIG. 4B; 350 ng/ml in FIGS. 4C and 6A), LiCl (3, 30, 60 mM in FIG. 4B; 30 mM in FIGS. 4C, 6A and 6C) and/or (2Z,3E)-6-Bromoindirubin-3-oxime (BIO, Gsk3-Inhibitor IX; 50, 500, 1000 nM in FIG. 4B; 500 nM in FIG. 6A; 50 and 500 nM in FIG. 6C; Calbiochem) were performed in Optimem1 (Invitrogen) plus 1% FCS. Unless otherwise noted, all treatments with thalidomide and rh-BMP4 and associated controls were done for six hours. Inhibitors were applied once at the beginning of incubation with the exception of LiCl that was added 150 minutes before harvesting the cells for further analyses. Pre-treatment with phenyl-N-t-butylnitrone (PBN; 2 mM; Sigma) was performed for one hour. Incubations with juglone were performed for two hours, if applicable, after a pre-treatment with PBN, Noggin, anti-Dkk1 antibody, LiCl or Gsk3-Inhibitor IX for one hour.
(§2) RNA isolation, semi-quantitative RT-PCRs and whole mount in situ hybridizations were performed according to standard protocols that are well known within the art. RNA was isolated using TRIZOL (Gibco BRL) followed by DNAseI digestion. First strand synthesis was carried out with the Expand RT System (Roche) according to the manufacturer's instructions. PCR amplification was carried out primers and conditions within the knowledge of a person having skill in the relevant art. Quantifications were performed using NIH Image 1.62.

[2] = system: Bmp4 and Dkk1 expression in HEFs; experiment: sqRT-PCR of Bmp4 and Dkk1 expression in HEFs; type: cell-based, human
Method: as §1, §2

[3] = system: primary limb bud cells (PLBCs); experiment: Cell death by trypan blue staining in PLBCs; type: cell-based, chicken; conditions: for effect on juglone-induced cell death in PLBCs: pre-treatment for one hour, juglone 5 μM two hours; for effect on BMP4-induced PCD in PLBCs: rh BMP4 300 ng/ml; for effect on thalidomide-induced cell death in PLBCs: thalidomide 10 μg/ml, six hours
Method: as §1
(§3) Cell death in PLBCs, CEFs, MEFs and HEFs was detected by staining with trypan blue (0.1% (w/v) in PBS; Sigma) for 90 seconds. Cells were counted in a counting chamber to determine the ratio of dead to live cells.

Wnt/β-catenin signaling = experiment: TOPflash luciferase reporter assay in CEFs; type: cell-based, chicken; conditions: Wnt3a-conditioned medium, 24 hours
Method: Plasmids with wild type (TOPflash) or mutated (FOPflash) LEF/TCF binding sites (5) upstream of a luciferase reporter gene were transiently transfected into CEFs using Lipofectamine (Invitrogen). Following transfection for 24 hours, the cells were exposed to Wnt3a-conditioned medium or to control medium (6) with or without thalidomide or recombinant human DKK1 (150 ng/ml, R&D Biosystems) for 24 hours prior to luciferase assay. Values were normalized for transfection efficiency by co-transfection with a pSV-β-galactosidase vector and for the number of living cells. Luciferase activity was measured using the Dual-Light System (Applied Biosystems).

[4] = system: primary chicken embryonic fibroblasts (CEFs); experiment: Cell death by trypan blue staining in CEFs; type: cell-based; conditions: data not shown
Method: as §1, §3

[5] = system: human embryonic fibroblasts (HEFs); experiment: Cell death by trypan blue staining in HEFs; type: cell-based; conditions: for effect on thalidomide-induced cell death in HEFs: Noggin 300 ng/ml, anti-DKK1 antibody 350 ng/ml, LiCl 30 mM
Method: as §1, §3

chicken embryos [6] = experiment: Inhibitors counteracting thalidomide-induced limb truncations and microphthalmia in chicken embryos; type: in vivo; conditions: for embryos with limb truncations, thalidomide-treated plus inhibitor: Noggin 100 ng/embryo or LiCl 0.6 mg/embryo at HH stages 17-19
Method: (§4) Fertilized eggs were purchased from Deindl GmbH, Rietberg-Varensell. They were incubated at 38° C. in a humidified incubator, windowed after one day and staged according to Hamburger and Hamilton (HH stage). Racemic thalidomide (Celgene), thalidomide enantiomers or phthalimide (Sigma) were dissolved in DMSO at 5 mg/ml and further diluted in PBS. Embryos were exposed to drugs by dropping 15 μg-3 mg thalidomide or phthalimide per kg egg weight (about 1-200 μg per embryo) in 50 μl DMSO/PBS as a single dose at HH stages 0-13 onto the embryo. Thalidomide (50 μg) or phthalimide (50 μg) in 10 μl DMSO was injected into the extra-embryonic blood vessels of HH 19 stage embryos. LiCl (99% pure, Sigma) was dissolved in sterile PBS. LiCl (0.1, 0.6 or 3.2 mg) was applied at HH stages 17-19 by dropping 500 μl of a 5 mM, 28 mM or 151 mM LiCl solution onto the embryo. Recombinant Noggin, Dkk1 specific goat IgG (R&D Systems) or serum of non-immunized goats (Sigma) was dissolved in 0.1% BSA/0.01% Fast Green/PBS. Noggin (10 or 100 ng), Dkk1 specific goat IgG (5 or 50 ng) or serum of non-immunized goats (50 ng) was applied to a single embryo at HH stages 17-19 by injecting a 10 μl solution through the extra-embryonic membranes.
(§5) The morphology of the limbs was studied in specimens fixed in 5% trichloroacetic acid and stained for cartilage with alcian green as described (3).

[7] = system: limb buds of HH stages 23/24 chicken embryos; experiment: Whole mount TUNEL staining of limb buds; type: in vivo; conditions: LiCl 0.6 mg per embryo at HH stages 17-19, 19 of 80
Method: TUNEL staining was performed as described (7).

chicken embryos [8] = experiment: Thalidomide-induced limb truncations and microphthalmia in chicken embryos; type: in vivo; conditions: applied to chicken embryos, control reagent
Method: as §4, with “LiCl (99% pure, Sigma) was dissolved in sterile PBS. LiCl (0.1, 0.6 or 3.2 mg) was applied at HH stages 17-19 by dropping 500 μl of a 5 mM, 28 mM or 151 mM LiCl solution onto the embryo.” left out
as §5

[9] = system: Dkk1 and Bmp expression in limb buds; experiment: sqRT-PCR and whole mount in situ hybridization of Dkk1 and Bmp expression in limb buds; type: in vivo, chicken; conditions: data not shown
Method: as §2

Molecule	effect on juglone-induced cell death in PLBCs [3]	effect on BMP4-induced PCD in PLBCs [3]	effect on thalidomide-induced cell death in PLBCs [3]	effect on thalidomide-induced cell death in CEFs [4]	effect on thalidomide-induced cell death in HEFs [5]	embryos with limb truncations, thalidomide-treated plus inhibitor (chicken embryos [6]) [%]	also measured
CC(C)(C)[N+]([O-])=Cc1ccccc1 [PBN, phenyl-N-t-butylnitrone]	completely reduces; also recorded: could be inhibited	no significant effect; also recorded: did not influence	completely reduces; also recorded: completely inhibited				effect on up-regulation of Bmp4 and Dkk1 expression in thalidomide-treated PLBCs ([1]; pre-treatment with PBN, data not shown): abolishes the up-regulation; effect on up-regulation of Bmp4 and Dkk1 expression in thalidomide-treated HEFs ([2]; pre-treatment with PBN): abolishes the up-regulation
O=C1Nc2cc(Br)ccc2/C1=C1/Nc2ccccc2/C1=N\O [Gsk3-Inhibitor IX, (2Z,3E)-6-Bromoindirubin-3-oxime]	could be inhibited	counteracted BMP4-induced PCD in a dose-dependent manner	completely abrogate				
recombinant DKK1: recombinant human DKK1, positive control in the TOPflash assay							effect on Wnt3a-induced TOPflash activity (Wnt/β-catenin signaling): clearly counteracted
[Cl-].[Li+] [LiCl]	could be inhibited	counteracted BMP4-induced PCD in a dose-dependent manner	completely abrogate	block thalidomide-induced cell death	block thalidomide-induced cell death	5	rescue of thalidomide-induced microphthalmia (chicken embryos [6]; 0.6 mg LiCl): did not rescue; embryos with thalidomide-induced microphthalmia plus LiCl (chicken embryos [6]; 3.2 mg LiCl per embryo): 9%; individual limb buds with enhanced PCD (TUNEL) in thalidomide-treated embryos given inhibitor [7]: 24%
O=C1NC(=O)c2ccccc21 [phthalimide]							limb or eye defects (chicken embryos [8]): did not cause limb or eye defects; Bmp and Dkk1 expression in limb buds [9]: not altered; expression of Bmp4 and Dkk1 in PLBCs ([1]; 10 μg/ml, six hours): did not influence the expression; expression of Bmp4 and Dkk1 in HEFs ([2]; 10 μg/ml, six hours): did not influence the expression; induction of PCD in PLBCs [3]: did not induce PCD; potential to induce PCD in HEFs [5]: did not induce PCD
B1	could be inhibited		only a partial neutralization; also recorded: clearly reduced	block thalidomide-induced cell death	block thalidomide-induced cell death	5	
